Results reported in patent US20120142623A1, “Compositions And Methods For Predicting Inhibitors Of Protein Targets” (priority 2006, published 2012).
Like-named read-outs stand apart in the source and are kept apart here.

Legend:
Reverse transcriptase = Reverse transcriptase (Human immunodeficiency virus type 1 group M subtype B, UniProt P04585)
Vpr = Vpr (Human immunodeficiency virus type 1 group M subtype B, UniProt P12520); details: read-out: Inhibitory effect (uM), EC50, Vpr; HIV-1 target Vpr; cited from earlier work
Chain of Vpr (P12520 whole entry): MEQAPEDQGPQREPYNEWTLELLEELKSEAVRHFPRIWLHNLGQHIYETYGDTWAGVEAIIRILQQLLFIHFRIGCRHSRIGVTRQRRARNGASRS

HIV-1 = details: HIV-1, target Unknown, cited from earlier work
Integrase = Integrase (Human immunodeficiency virus type 1 group M subtype B, UniProt P04585)
Tat = Tat (Human immunodeficiency virus type 1 group M subtype B, UniProt P04608)
Chain of Tat (P04608 whole entry): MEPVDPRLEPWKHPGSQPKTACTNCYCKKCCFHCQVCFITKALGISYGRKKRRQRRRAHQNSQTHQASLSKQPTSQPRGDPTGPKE

Protease = Protease (Human immunodeficiency virus type 1 group M subtype B, UniProt P04585); details: HIV-1 target Protease; read-out: Inhibitory effect (uM), IC50, Protease; cited from earlier work
[1] = system: plasmepsin enzyme target from the malarial parasite Plasmodium malariae; details: complexes solved by x-ray diffraction (1msm, 2anl); cited from earlier work
gp120 = target: T1, gp120 (Human immunodeficiency virus type 1 group M subtype B, UniProt P03375); details: read-out: Inhibitory effect (uM), ED50, gp120; HIV-1 target gp120; cited from earlier work
T1 construct: V3 region of HIV-1 envelope glycoprotein gp120 to galactosylceramide

gp41 = details: HIV-1 target gp41; read-out: Inhibitory effect (uM), IC50, gp41; cited from earlier work
HSV2 protease = target: T2, HSV2 protease (Human herpesvirus 2, UniProt P89449); experiment: Surface Plasmon Resonance (SPR), dissociation constant for HSV protease; type: binding, herpes simplex virus (HSV2)
T2 construct: HSV2 protease Kd (uM)
T2 sequence (P89449 1-247): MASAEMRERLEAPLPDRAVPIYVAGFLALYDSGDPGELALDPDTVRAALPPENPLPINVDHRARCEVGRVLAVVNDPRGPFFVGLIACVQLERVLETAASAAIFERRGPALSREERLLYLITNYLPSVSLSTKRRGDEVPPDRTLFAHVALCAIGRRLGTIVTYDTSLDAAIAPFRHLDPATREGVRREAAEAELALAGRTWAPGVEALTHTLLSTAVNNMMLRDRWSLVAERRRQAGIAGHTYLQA
Excerpt: (§1) The first experimental verification of our computational predictions were with TMPyP4, the top ranking inhibitor predicted to bind to all known herpesvirus proteases (see FIG. 3). This is also the inhibitor that we have characterized most computationally and experimentally, so we focus primarily on this inhibitor. […] Traditional approaches to design an inhibitor against this molecule is likely to fail since it has an extremely shallow active site pocket. However, protease dimerisation is essential for protein function and our top ranking inhibitor not only fit around the active site (covering it) but also intercolated itself in the dimer interface. Our predicted mode of action was therefore two fold: covering the surface of the active site, and inhibition of dimerisation in a reversible manner (i.e., as dimers formed, our inhibitor would bind which would disrupt the dimer, resulting in the inhibitor binding weakly and likely released, which would lead to reformation of the dimer, and so on). FIG. 3 illustrates this mode of action. […] TMPyP4 is the only known compound that is capable of inhibiting all three classes of herpesviruses.
(§2) Four inhibitors were evaluated; our top ranking one (TMPyP4) clearly binds to all three proteases as predicted. […] A third inhibitor, GW8510, predicted to bind fails (i.e., a misprediction). […]

[2] = system: chloroquine-sensitive strain 3D7 of P. falciparum; experiment: P. falciparum growth inhibition in culture, strain 3D7; type: cell-based, Plasmodium falciparum; details: for EC50: Plasmodium falciparum, 3D7
[3] = system: chloroquine-resistant strain K1 of P. falciparum; experiment: P. falciparum growth inhibition in culture, strain K1; type: cell-based, Plasmodium falciparum; details: Plasmodium falciparum, K1
HSV protease = experiment: Surface Plasmon Resonance, HSV protease; type: binding; details: SPR, FIG. 4
Protocol: (§3) Four inhibitors were evaluated; our top ranking one (TMPyP4) clearly binds to all three proteases as predicted. […] A third inhibitor, GW8510, predicted to bind fails (i.e., a misprediction). […] Our inhibitor prediction is completely consistent with the observed experimental data which is verified further by cell culture studies in FIG. 4 and compared to existing antiherpes drugs.

HSV-1 strain F = experiment: HSV-1 infection of Vero cells, virus titer; type: cell-based
CMV = CMV infection of HFF cells, virus titer; type: cell-based; details: FIG. 5
KSHV = KSHV inhibition, different assay, fold reduction; type: cell-based; details: FIG. 5
[4] = system: herpesvirus lytic phase viral growth; experiment: Herpesvirus lytic phase viral growth in vitro; type: cell-based; details: dose-dependent, starting at micromolar concentrations
CMV protease [5] = target: T3, CMV protease (Human cytomegalovirus, UniProt P16753); experiment: Surface Plasmon Resonance (SPR), dissociation constant for CMV protease; type: binding; set-up: CMV protease Kd (uM)
T3 sequence (P16753 1-256): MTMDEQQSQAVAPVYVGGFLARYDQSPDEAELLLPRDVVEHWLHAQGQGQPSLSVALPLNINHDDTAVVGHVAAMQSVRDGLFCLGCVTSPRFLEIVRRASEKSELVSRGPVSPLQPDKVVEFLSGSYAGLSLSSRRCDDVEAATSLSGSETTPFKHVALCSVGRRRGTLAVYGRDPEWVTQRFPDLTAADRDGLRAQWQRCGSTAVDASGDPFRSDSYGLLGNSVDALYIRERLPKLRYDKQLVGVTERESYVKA
Excerpt: as §1, §2

KSHV protease [6] = target: T4, KSHV protease (Human herpesvirus 8 type P, UniProt Q2HRB6); experiment: Surface Plasmon Resonance (SPR), dissociation constant for KSHV protease; type: binding, Kaposi's sarcoma virus (KSHV); set-up: KSHV protease Kd (uM)
T4 sequence (Q2HRB6 1-230): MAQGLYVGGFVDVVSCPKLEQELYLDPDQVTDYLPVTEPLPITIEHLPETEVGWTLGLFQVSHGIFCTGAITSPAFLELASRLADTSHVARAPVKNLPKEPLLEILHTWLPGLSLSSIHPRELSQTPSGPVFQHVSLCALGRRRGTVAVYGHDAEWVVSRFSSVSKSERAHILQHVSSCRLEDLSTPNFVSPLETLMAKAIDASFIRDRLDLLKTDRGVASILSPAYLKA
Excerpt: as §1, §2

CMV protease [7] = target: T3, CMV protease; experiment: Surface Plasmon Resonance, CMV protease; type: binding; set-up: herpes simplex virus (HSV) proteases (including HSV2, VZV, EBV, CMV, and KSHV); details: SPR, FIG. 4
Protocol: as §3

KSHV protease [8] = target: T4, KSHV protease; experiment: Surface Plasmon Resonance, KSHV protease; type: binding; set-up: herpes simplex virus (HSV) proteases (including HSV2, VZV, EBV, CMV, and KSHV); details: SPR, FIG. 4
Protocol: as §3

## CN(C)c1ccc(O)c2c1C[C@H]1C[C@H]3[C@H](N(C)C)C(O)=C(C(N)=O)C(=O)[C@@]3(O)C(O)=C1C2=O [Minocycline]
Reverse transcriptase; HIV-1 target Reverse transcriptase; read-out: Inhibitory effect (uM), IC50, Reverse transcriptase; cited from earlier work
  IC50: 1200 µM

## CO[C@@H]1[C@H](OC(=O)/C=C/C=C/C=C/C=C/C(=O)O)CC[C@]2(CO2)[C@H]1[C@@]1(C)O[C@@H]1CC=C(C)C [Fumagillin]
Vpr
  EC50: 0.015 µM
HIV-1; printed EC, read-out: Inhibitory effect (uM), EC, target Unknown
  EC50: > 0.2 µM

## CC(C)S(=O)(=O)n1c(N)nc2ccc(/C(=N/O)c3ccccc3)cc21 [Enviroxime]
HIV-1; read-out: Inhibitory effect (uM), EC50, target Unknown
  EC50: > 36.5 µM

## CCN(CC)CCCC(C)Nc1ccnc2cc(Cl)ccc12 (stereo not drawn) [Chloroquine]
Integrase; read-out: Inhibitory effect (uM), IC50, Integrase; HIV-1 target Integrase; cited from earlier work
  IC50: 5.14 µM
Reverse transcriptase; read-out: Inhibitory effect (uM), IC50, Reverse transcriptase; HIV-1 target Reverse transcriptase; cited from earlier work
  IC50: > 300 µM
Tat; read-out: Inhibitory effect (uM), IC50, Tat; HIV-1 target Tat; cited from earlier work
  IC50: < 50 µM

## Cc1ccccc1CNC(=O)[C@H]1N(C(=O)[C@@H](O)[C@H](Cc2ccccc2)NC(=O)c2cccc(O)c2C)CSC1(C)C [KNI-764]
Protease
  IC50: > 0.05 µM
[1]
  inhibition of HIV-1 protease and plasmepsin: inhibits both HIV-1 protease and the plasmepsin enzyme target

## COc1cc(/C=C/C(=O)CC(=O)/C=C/c2ccc(O)c(OC)c2)ccc1O [Curcumin]
Tat; HIV-1 target Tat; read-out: Inhibitory effect (uM), IC50, Tat; cited from earlier work
  IC50: < 30 µM

## Cc1ccc(C(=O)Nc2ccc(S(=O)(=O)O)c3cc(S(=O)(=O)O)cc(S(=O)(=O)O)c23)cc1NC(=O)c1cccc(NC(=O)Nc2cccc(C(=O)Nc3cc(C(=O)Nc4ccc(S(=O)(=O)O)c5cc(S(=O)(=O)O)cc(S(=O)(=O)O)c45)ccc3C)c2)c1 [Suramin]
Integrase; HIV-1 target Integrase; read-out: Inhibitory effect (uM), IC50, Integrase; cited from earlier work
  IC50: 2.4 µM
gp120
  EC50: 7.7 µM

## Amphotericin B
gp41
  IC50: > 10 µM

## C[n+]1ccc(-c2c3nc(c(-c4cc[n+](C)cc4)c4ccc([nH]4)c(-c4cc[n+](C)cc4)c4nc(c(-c5cc[n+](C)cc5)c5ccc2[nH]5)C=C4)C=C3)cc1 [TMPyP4, meso-5,10,15,20-Tetrakis-(N-methyl-4-pyridyl)porphine tetratosylate]
HSV2 protease
  Kd: 40 µM
[2]; Table 3 section A, mean of at least two measurements, read-out: ED50 in 3D7
  EC50: 1 µM
[2]; Table 5, read-out: ED50 (μM) in 3D7
  EC50: 1 µM
[2]; summary of Table 5
  result of the 16 tested inhibitors in words (binding): moderate binding
[3]; Table 3 section A, mean of at least two measurements, read-out: ED50 in K1
  EC50: 1 µM
[3]; Table 5, read-out: ED50 (μM) in K1
  EC50: 1 µM
HSV protease
  disassociation constant (Kd), HSV protease: micromolar range
HSV-1 strain F; FIG. 5 bottom left panel, virus not named
  effect used together with acylovir: almost completely eliminates all virus when used together
HSV-1 strain F; FIG. 5 bottom right panel, virus not named
  effectiveness after passage for several cycles with both acylovir and TMPyP4: still continues to be effective
HSV-1 strain F; Vero cells, HSV-1 strain F, FIG. 5
  inhibition of HSV, virus titer: comparably or better than existing antiherpes drugs
CMV
  inhibition of CMV, virus titer: comparably or better than existing antiherpes drugs
KSHV
  inhibition of KSHV: inhibited KSHV
[4]
  inhibition of lytic phase viral growth: 90%
CMV protease [5]
  Kd: 36 µM
KSHV protease [6]
  Kd: 32.8 µM
CMV protease [7]
  disassociation constant (Kd), CMV protease: micromolar range
KSHV protease [8]
  disassociation constant (Kd), KSHV protease: micromolar range
